# Earlier results as cited in patent US20080305994A1, “Pharmaceutical Compositions and Method for Treating, Reducing, Ameliorating, Alleviating, or Preventing Dry Eye” (priority 2007, published 2008).
# What was measured:
# [1] = test system: lipopolysaccharide ("LPS")-induced leukocyte recruitment within pulmonary arterioles, capillaries, and venules; settings: rabbits, inhibition of PARP
# [2] = test system: intercellular adhesion molecule 1 ("ICAM-1"); settings: rabbits; inhibition of PARP
structure (smiles),measurement,setting,value
NC(=O)c1cccc(N)c1 [3-aminobenzamide],"LPS-induced leukocyte recruitment within pulmonary arterioles, capillaries, and venules",[1],reduced
same,expression of intercellular adhesion molecule 1 (ICAM-1),[2],suppressed
